Usually IC50 stands for the concentration that gives 50% inhibition. As usually defined, the solubility is how much of the substance goes into solution per volume. A high value points to a readily soluble substance.

These results are taken from patent publication US20210292306A1, “NOVEL INDOLE DERIVATIVE AND ANTI-CANCER CONPOSITION CONTAINING SAME” (KOREA RESEARCH INSTITUTE OF BIOSCIENCE AND BIOTECHNOLOGY, priority 2016, published 2021).

One data set relates to HeLa cells. Kind of data set: Anti-proliferative activity in HeLa cell line (MTT assay). It is filed as cell-based. The following applies: Homo sapiens, 96 h, 4 days, mean of two repeated assays. As to the method:
(§1) HeLa cells (ATCC, USA), which are a human cervical cancer cell line, were dispensed into a 96-well plate at 2×10^3 cells/well, and the cells were treated with DMSO or the indole derivatives of the present invention, and then allowed to grow for 4 days. And then, MTT (3-(4,5-Dimethylthiazol-2-yl)-2,5-diphenyltetrazolium bromide) reagent was added to the wells at 10 μl/well. After 2 hours, the absorbance was measured at “OD 450” and statistical values were obtained using the plizm6 program. The data represent mean values of the results of two repeated assays (Table 1).
(In general: Formazan colour is commonly taken as a measure of viable cells.)

The subject of a further data set is A 549. The experiment in a line: Anti-proliferative activity in other cancer cell lines (MTT assay). It is filed as cell-based. The following applies: Homo sapiens, A549, 96 h, A 549 (lung), 4 days, mean of three assays. The procedure: as §1
(§2) Specifically, various cancer cell lines were cultured on a microtiter plate (1-3×10^3 cells/well), and the cells were treated with the indole derivative of the present invention and cultured for 4 days. Cytotoxicity was examined by the MTT assay by the same method as in Experimental Example 1-1, and the IC50 was obtained by the log-dose response curve. The data represent mean values of the results of three repeated assays (Table 2).

For a further data set, the system named is A172. The data set is described as above. It is filed as cell-based. The note with it: Homo sapiens, A 172, 96 h, A172 (brain), 4 days, mean of three assays. As to the method:
as §1, §2

Data set [1] relates to A431. Described as above. The format is cell-based. The following applies: Homo sapiens, A-431, 96 h, A431 (skin), 4 days, mean of three assays. As to the method: as §1, §2
The test system of another data set is Hep3B. The description is as above. It is filed as cell-based. The note with it: Homo sapiens, 96 h, Hep3B (liver), 4 days, mean of three assays. The procedure: as §1, §2
In data set [2] the test system is K562. Described as above. The following applies: Homo sapiens, 96 h, K562 (bone marrow), 4 days, mean of three assays. It is filed as cell-based. As to the method: as §1, §2
The test system of a further data set is NCIH-1299. The data set is described as above. The format is cell-based. The following applies: Homo sapiens, NCI-H1299, 96 h, NCIH-1299 (lung), 4 days, mean of three assays. As to the method:
as §1, §2

The test system of a further data set is SNU 484. The description is as above. The format is cell-based. The note with it: 96 h, SNU 484 (stomach), 4 days, mean of three assays. As to the method:
as §1, §2

The test system of a further data set is U373MG. The description is as above. The following applies: Homo sapiens, U373 MG, 96 h, U373MG (brain), 4 days, mean of three assays. It is filed as cell-based. As to the method:
as §1, §2

Another data set concerns Wehi 3. The data set is described as above. It is filed as cell-based. The note with it: 96 h, Wehi 3 (bone marrow), 4 days, mean of three assays. As to the method: as §1, §2
For data set [3], the system named is K562. Kind of data set: Anti-proliferative activity, multiple drug resistance study (MTT assay), parent line. The format is cell-based. The following applies: Homo sapiens, 96 h, 4 days, mean of three assays. As to the method: (§3) HeLa cells (ATCC, USA), which are a human cervical cancer cell line, were dispensed into a 96-well plate at 2×10^3 cells/well, and the cells were treated with DMSO or the indole derivatives of the present invention, and then allowed to grow for 4 days. And then, MTT (3-(4,5-Dimethylthiazol-2-yl)-2,5-diphenyltetrazolium bromide) reagent was added to the wells at 10 μl/well. After 2 hours, the absorbance was measured at “OD 450” and statistical values were obtained using the plizm6 program. The data represent mean values of the results of two repeated assays (Table 1). Specifically, K562 and MCF7 (Bio Evaluation Center, Korea Research Institute of Bioscience and Biotechnology, Korea), and K562/ADR and MCF7/ADR (Bio Evaluation Center, Korea Research Institute of Bioscience and Biotechnology, Korea), which are multiple drug-resistant cell lines of the above mentioned cell lines, respectively, were cultured on a microtiter plate at 1-3×10^3 cells/well.

Another data set deals with MCF7. The description is as above. The note with it: Homo sapiens, 96 h, 4 days, mean of three assays. The format is cell-based. As to the method: as §3
The test system of data set [4] is A431. Kind of data set: Effect on cell cycle progression (propidium iodine, FACS). The note with it: A431, 17 hours. It is filed as cell-based, human. The procedure: (§4) Several cancer cell lines were cultured on a 12 well plate (3×10^4 cells/well), and treated with DMSO or WCI-1031, an indole derivative of the present invention, for 17 hours, and then added with a propidium iodine dye to stain the cellular DNA, and subjected to measurement using FACS. The concentrations at which cells gathered in the G2/M phase and numbers of the cells represented as percentages were shown (Table 5).

A further data set concerns HeLa. The data set is described as above. The following applies: 17 hours. The format is cell-based, human. As to the method:
as §4

Data set [5] deals with human-derived skin cancer cell line (A431). The experiment in a line: Anti-cancer effect in human-derived skin cancer cell (A431) implantation nude mouse model. It is filed as in vivo, BALB/C female nude mouse. The following applies: for tumor growth inhibition: days 0-23, last day (day 23), vs solvent control; for tumor weight reduction: excised A431 tumors weighed. As to the method: The human cancer cell line A431 which was kept frozen in liquid nitrogen was thawed and cell culture was conducted. Cells were cultured in a CO2 incubator (Forma, USA) at 37° C. and 5% CO2 for an appropriate period of time. On the last day of culture, all cancer cells were collected and counted and the cell concentration was adjusted to 1×10^7 cells/ml using serum free media. The culture solution thus prepared was injected subcutaneously in the axillary region between the scapula and chest wall in an amount of 0.3 ml per BALB/C female nude mouse (5 weeks old, Nara Biotech) (3×10^6 cells/mouse). […] To examine the toxicity levels of the repeated intraperitoneal administration of WCI-1031 to A431 cancer cell implantation nude mice, general symptoms and weight changes of the animals were observed during the administration period. […] On day 23 after the start of the drug administration, blood was taken from the mice through ophthalmic veins 2 hours after the last administration, and the mice were sacrificed using CO2 gas. Then the mice were photographed and the tumors was isolated and weighed in a chemical balance. After taking photographs, each tumor was divided in half, and the resultant tumors were fixed to liquid nitrogen and formalin, respectively.

The nature of data set [6]: Solubility in phosphate buffer. The format is physicochemical. The following applies: aqueous buffer, thermodynamic from solid. As to the method:
In order to examine the solubility of the indole derivative of the present invention, the solubility of the compound of Example 1 (WCI-1031) was examined at pH 6.5 or pH 7.4.
Specifically, a solid sample (˜1 mg) of the test substance was placed on Whatman Syringeless filter (PVDF membrane, 0.45 μm pore size) and mixed with 0.5 ml of a phosphate buffer (pH 6.5 or 7.4). The mixture was sonicated for 15 minutes and vortexed for 1 hour at room temperature. The equilibrated mixture was filtered and the filtrate was analyzed with a multi-wavelength UV plate reader (FIGS. 8 and 9).

≈ marks a conversion by molar mass, not a printed value.

Regarding `COC(=O)Cn1c(C)c(/C=N/NC(=O)c2cc3c(ccc4ccccc43)o2)c2ccccc21` [WCI-1031, methyl (E)-2-(2-methyl-3-((2-(naphtho[2,1-b]furan-2-carbonyl) hydrazono)methyl)-1H-indole-1-yl)acetate], the IC50 with HeLa cells was 0.653 µM; in the data set on A 549, 0.495 µM; with A172, 1.12 µM; with A431 [1], 0.186 µM; with Hep3B, 0.503 µM; with K562 [2], 0.549 µM. Moreover, the IC50 in the data set with NCIH-1299 came to 0.376 µM; with SNU 484 it was 0.493 µM; with U373MG, 0.262 µM; with Wehi 3, 0.29 µM; with K562 [3] it was 0.532 µM; in the data set on MCF7 it was 1.32 µM. Further, the “effect μM (concentration at which cells gathered in the G2/M phase)” value in the data set on A431 [4] and with HeLa was 0.5 µM in each case. Moreover, the “% of G2/M” value in the data set on A431 [4] (at the effect concentration) amounted to 66.32%; in the data set on HeLa (at the effect concentration) it was 82.36%. Further, the tumor growth inhibition came to 9.3% in data set [5] (10 mg/kg) and 37.2% in [5] (20 mg/kg, p<0.001). Besides, the tumor weight reduction in [5] (10 mg/kg) is 10.7%; in data set [5] (20 mg/kg, p<0.001), 38.0%. Also, the solubility at 1 h was determined as 0.9 µg/mL (≈ 2.05 µM) in data set [6] (phosphate buffer pH 6.5, room temperature) and 0.4 µg/mL (≈ 0.91 µM) in data set [6] (phosphate buffer pH 7.4, room temperature).
